Assay results as given in EP0315197B1 (GÖDECKE AKTIENGESELLSCHAFT, priority 1987, dated 1989).
Where a name gives a salt, the structure may show the parent alone. Read-outs that look alike come from different tables or passages of the source.

Key:
Hypertonie [1] = conditions: for Senkung der Herzfrequenz / Senkung des systolischen Blutdrucks im Sitzen: 3 weeks; for Abnahme des diastolischen Blutdrucks: after 3 weeks vs end of placebo phase, depending on time of measurement; for Response-Rate zum Zeitpunkt 8 Uhr: pre-dose; for globale Response-Rate (Anteil der Patienten mit Response zu allen drei Meßzeitpunkten): response = diastolic decrease of at least 10 mmHg or below 90 mmHg; for DBD sitzend / DBD stehend / HR sitzend / SBD sitzend / SBD stehend / HR stehend: mean (SD)
Source text: Die Patienten befanden sich stationär in Reha-Kliniken.
Nach Absetzen einer eventuellen antihypertensiven Vorbehandlung erhielten die Patienten zunächst 1 Woche Placebo.
Zur Beurteilung der Wirksamkeit wurde der diastolische Blutdruck im Sitzen zu 3 verschiedenen Tageszeiten (8, 11 und 17 Uhr) herangezogen. "Response" war definiert als eine Senkung des diastolischen Blutdrucks um mindestens 10 mmHg oder unter einen Wert von 90 mmHg.

Hypertonie [2] = conditions: for Response-Rate / Senkung des mittleren systolischen Blutdrucks im Sitzen: 8 weeks; for Senkung des diastolischen Blutdrucks im Sitzen: after 8 weeks vs placebo phase, morning pre-dose, mean; for DBD sitzend / DBD stehend / HR sitzend / HR stehend / SBD sitzend / SBD stehend: mean (SD)
Procedure: In diese multizentrische randomisierte Doppelblind-Parallel-Studie wurden wiederum Hypertoniker der WHO-Klasse I-III eingeschlossen, deren diastolischer Blutdruck am Ende der Placebophase höher als 95 mmHg war. Einer 2-wöchigen Placebophase folgte eine Behandlungsphase von 8 Wochen. Das Therapieschema von 1 x tgl. 180 mg bzw. 2 x tgl. 90 mg glich dem der vorangegangenen Studie. Zur Beurteilung der Wirksamkeit wurde die Senkung des diastolischen Blutdrucks bei der Messung am Morgen herangezogen, die jeweils nach 8 Wochen Behandlung erzielt worden war. Die Blutdruckmessung erfolgte wiederum vor der Medikation, um Aufschluß über die 24-h-Wirkung bei der einmal täglichen Behandlung zu erhalten.

[3] = Kölle 1983; cited from earlier work
[4] = 5 p.m., 1 × 180 mg (n = 40), Basislinie (end of placebo phase)
[5] = 5 p.m., 1 × 180 mg (n = 40), Endpunkt (3 weeks)
[6] = 5 p.m., 2 × 90 mg (n = 42), Basislinie (end of placebo phase)
[7] = 5 p.m., 2 × 90 mg (n = 42), Endpunkt (3 weeks)
[8] = 8 a.m., 1 × 180 mg (n = 40), Basislinie (end of placebo phase)
[9] = 8 a.m., 1 × 180 mg (n = 40), Endpunkt (3 weeks)
[10] = 8 a.m., 2 × 90 mg (n = 42), Basislinie (end of placebo phase)
[11] = 8 a.m., 2 × 90 mg (n = 42), Endpunkt (3 weeks)
[12] = 11 a.m., 1 × 180 mg (n = 40), Basislinie (end of placebo phase)
[13] = 11 a.m., 1 × 180 mg (n = 40), Endpunkt (3 weeks)
[14] = 11 a.m., 2 × 90 mg (n = 42), Basislinie (end of placebo phase)
[15] = 11 a.m., 2 × 90 mg (n = 42), Endpunkt (3 weeks)
[16] = 1 × 180 mg (n = 30), Basislinie (end of placebo phase)
[17] = 1 × 180 mg (n = 30), Endpunkt (8 weeks)
[18] = 2 × 90 mg (n = 30), Basislinie (end of placebo phase)
[19] = 2 × 90 mg (n = 30), Endpunkt (8 weeks)

SMILES: COc1ccc([C@@H]2Sc3ccccc3N(CCN(C)C)C(=O)[C@@H]2OC(C)=O)cc1 [Diltiazem, Diltiazemhydrochlorid]
- Senkung der Herzfrequenz (Hypertonie [1]; 1 x 180 mg group): 4-8 Schläge pro Minute
- Senkung des systolischen Blutdrucks im Sitzen (Hypertonie [1]; 1 x 180 mg group): 19-22 mmHg
- Abnahme des diastolischen Blutdrucks (Hypertonie [1]; 1 x 180 mg group): 13-16 mmHg
- Response-Rate zum Zeitpunkt 8 Uhr (Hypertonie [1]; 1 x 180 mg group): 87,5%
- globale Response-Rate (Anteil der Patienten mit Response zu allen drei Meßzeitpunkten) (Hypertonie [1]; 1 x 180 mg group): 85%
- Senkung der Herzfrequenz (Hypertonie [1]; 2 x 90 mg group): 4-8 Schläge pro Minute
- Senkung des systolischen Blutdrucks im Sitzen (Hypertonie [1]; 2 x 90 mg group): 15-18 mmHg
- Abnahme des diastolischen Blutdrucks (Hypertonie [1]; 2 x 90 mg group): 13-16 mmHg
- Response-Rate zum Zeitpunkt 8 Uhr (Hypertonie [1]; 2 x 90 mg group): 81%
- globale Response-Rate (Anteil der Patienten mit Response zu allen drei Meßzeitpunkten) (Hypertonie [1]; 2 x 90 mg group): 62%
- DBD sitzend (Hypertonie [1]; [4]): 99.2 (3.9) mmHg
- DBD stehend (Hypertonie [1]; [4]): 101.0 (4.8) mmHg
- HR sitzend (Hypertonie [1]; [4]): 76.5 (9.2) 1/min
- SBD sitzend (Hypertonie [1]; [4]): 158.9 (16.1) mmHg
- SBD stehend (Hypertonie [1]; [4]): 158.4 (16.3) mmHg
- DBD sitzend (Hypertonie [1]; [5]): 85.2 (8.8) mmHg
- DBD stehend (Hypertonie [1]; [5]): 88.8 (8.9) mmHg
- HR sitzend (Hypertonie [1]; [5]): 70.0 (7.2) 1/min
- HR stehend (Hypertonie [1]; [5]): 78.6 (7.7) 1/min
- SBD sitzend (Hypertonie [1]; [5]): 140.2 (14.2) mmHg
- SBD stehend (Hypertonie [1]; [5]): 138.5 (14.8) mmHg
- DBD sitzend (Hypertonie [1]; [6]): 99.9 (5.9) mmHg
- DBD stehend (Hypertonie [1]; [6]): 102.5 (5.8) mmHg
- HR sitzend (Hypertonie [1]; [6]): 77.0 (8.4) 1/min
- SBD stehend (Hypertonie [1]; [6]): 156.7 (15.0) mmHg
- DBD sitzend (Hypertonie [1]; [7]): 87.0 (10.7) mmHg
- DBD stehend (Hypertonie [1]; [7]): 87.7 (9.2) mmHg
- HR sitzend (Hypertonie [1]; [7]): 72.1 (8.1) 1/min
- HR stehend (Hypertonie [1]; [7]): 79.6 (9.1) 1/min
- SBD stehend (Hypertonie [1]; [7]): 138.6 (15.1) mmHg
- DBD sitzend (Hypertonie [1]; [8]): 98.3 (3.9) mmHg
- DBD stehend (Hypertonie [1]; [8]): 100.1 (7.1) mmHg
- HR sitzend (Hypertonie [1]; [8]): 76.8 (9.4) 1/min
- HR stehend (Hypertonie [1]; [8]): 87.2 (11.0) 1/min
- SBD sitzend (Hypertonie [1]; [8]): 161.3 (16.2) mmHg
- SBD stehend (Hypertonie [1]; [8]): 158.6 (16.4) mmHg
- DBD sitzend (Hypertonie [1]; [9]): 85.3 (8.3) mmHg
- DBD stehend (Hypertonie [1]; [9]): 87.3 (9.8) mmHg
- HR sitzend (Hypertonie [1]; [9]): 73.7 (7.1) 1/min
- HR stehend (Hypertonie [1]; [9]): 80.6 (7.4) 1/min
- SBD stehend (Hypertonie [1]; [9]): 141.0 (14.8) mmHg
- DBD sitzend (Hypertonie [1]; [10]): 99.8 (5.2) mmHg
- DBD stehend (Hypertonie [1]; [10]): 102.0 (5.8) mmHg
- HR sitzend (Hypertonie [1]; [10]): 76.4 (9.6) 1/min
- SBD stehend (Hypertonie [1]; [10]): 155.5 (17.9) mmHg
- DBD sitzend (Hypertonie [1]; [11]): 83.9 (10.7) mmHg
- DBD stehend (Hypertonie [1]; [11]): 88.5 (9.7) mmHg
- HR sitzend (Hypertonie [1]; [11]): 72.1 (8.2) 1/min
- HR stehend (Hypertonie [1]; [11]): 79.0 (8.0) 1/min
- SBD stehend (Hypertonie [1]; [11]): 137.4 (16.1) mmHg
- DBD sitzend (Hypertonie [1]; [12]): 98.5 (3.9) mmHg
- DBD stehend (Hypertonie [1]; [12]): 100.5 (5.8) mmHg
- HR sitzend (Hypertonie [1]; [12]): 75.1 (9.2) 1/min
- HR stehend (Hypertonie [1]; [12]): 84.4 (9.5) 1/min
- SBD sitzend (Hypertonie [1]; [12]): 159.2 (18.2) mmHg
- SBD stehend (Hypertonie [1]; [12]): 157.9 (19.6) mmHg
- DBD sitzend (Hypertonie [1]; [13]): 83.3 (8.2) mmHg
- DBD stehend (Hypertonie [1]; [13]): 87.1 (8.3) mmHg
- HR sitzend (Hypertonie [1]; [13]): 71.1 (7.0) 1/min
- HR stehend (Hypertonie [1]; [13]): 78.8 (6.9) 1/min
- SBD sitzend (Hypertonie [1]; [13]): 137.6 (12.2) mmHg
- SBD stehend (Hypertonie [1]; [13]): 137.1 (14.2) mmHg
- DBD sitzend (Hypertonie [1]; [14]): 100.2 (5.4) mmHg
- DBD stehend (Hypertonie [1]; [14]): 102.9 (5.6) mmHg
- HR sitzend (Hypertonie [1]; [14]): 76.0 (9.1) 1/min
- HR stehend (Hypertonie [1]; [14]): 83.6 (10.4) 1/min
- SBD sitzend (Hypertonie [1]; [14]): 158.1 (16.5) mmHg
- SBD stehend (Hypertonie [1]; [14]): 155.8 (17.7) mmHg
- DBD sitzend (Hypertonie [1]; [15]): 85.4 (9.5) mmHg
- DBD stehend (Hypertonie [1]; [15]): 87.3 (10.6) mmHg
- HR sitzend (Hypertonie [1]; [15]): 71.3 (7.8) 1/min
- HR stehend (Hypertonie [1]; [15]): 78.6 (8.6) 1/min
- SBD sitzend (Hypertonie [1]; [15]): 140.1 (15.8) mmHg
- SBD stehend (Hypertonie [1]; [15]): 135.7 (15.5) mmHg
- Response-Rate (Hypertonie [2]; 1 x 180 mg group): 80%
- Senkung des diastolischen Blutdrucks im Sitzen (Hypertonie [2]; 1 x 180 mg group): 13 mmHg
- Senkung des mittleren systolischen Blutdrucks im Sitzen (Hypertonie [2]; 1 x 180 mg): 16 mmHg
- DBD sitzend (Hypertonie [2]; [16]): 100.7 (3.0) mmHg
- DBD stehend (Hypertonie [2]; [16]): 98.7 (3.2) mmHg
- HR sitzend (Hypertonie [2]; [16]): 72.5 (4.9) 1/min
- HR stehend (Hypertonie [2]; [16]): 74.9 (6.3) 1/min
- SBD sitzend (Hypertonie [2]; [16]): 175.1 (16.6) mmHg
- SBD stehend (Hypertonie [2]; [16]): 169.7 (19.8) mmHg
- DBD sitzend (Hypertonie [2]; [17]): 87.8 (9.1) mmHg
- DBD stehend (Hypertonie [2]; [17]): 84.8 (9.2) mmHg
- HR sitzend (Hypertonie [2]; [17]): 68.7 (4.4) 1/min
- HR stehend (Hypertonie [2]; [17]): 71.3 (5.2) 1/min
- SBD sitzend (Hypertonie [2]; [17]): 159.0 (18.8) mmHg
- SBD stehend (Hypertonie [2]; [17]): 150.5 (26.6) mmHg
- Response-Rate (Hypertonie [2]; 2 x 90 mg group): 70%
- Senkung des diastolischen Blutdrucks im Sitzen (Hypertonie [2]; 2 x 90 mg group): 12 mmHg
- Senkung des mittleren systolischen Blutdrucks im Sitzen (Hypertonie [2]; 2 x 90 mg): 10 mmHg
- DBD sitzend (Hypertonie [2]; [18]): 99.1 (3.2) mmHg
- DBD stehend (Hypertonie [2]; [18]): 99.0 (3.1) mmHg
- HR sitzend (Hypertonie [2]; [18]): 73.5 (6.5) 1/min
- HR stehend (Hypertonie [2]; [18]): 75.9 (7.5) 1/min
- SBD sitzend (Hypertonie [2]; [18]): 169.4 (19.7) mmHg
- SBD stehend (Hypertonie [2]; [18]): 168.5 (22.1) mmHg
- DBD sitzend (Hypertonie [2]; [19]): 88.4 (8.0) mmHg
- DBD stehend (Hypertonie [2]; [19]): 86.9 (8.6) mmHg
- HR sitzend (Hypertonie [2]; [19]): 69.8 (6.0) 1/min
- HR stehend (Hypertonie [2]; [19]): 72.5 (7.0) 1/min
- SBD sitzend (Hypertonie [2]; [19]): 159.2 (23.7) mmHg
- SBD stehend (Hypertonie [2]; [19]): 156.7 (28.4) mmHg
- Halbwertzeit für die Elimination, α-Phase [3]: 0,1 h
- Halbwertzeit für die Elimination, β-Phase [3]: 2,1 h
- Halbwertzeit für die Elimination, γ-Phase [3]: 9,8 h
